One may read the IC50 as the point on the concentration scale where inhibition reaches its midpoint.

Holding throughout (assay type): biochemical
Test [1] concerns the target RET kinase G810S (Homo sapiens, UniProt P07949, G810S). Briefly: RET Enzyme Assay (HTRF KinEASE-TK), G810S.
Test [2] concerns the target RET kinase M918T (Homo sapiens, UniProt P07949, M918T). Briefly: RET Enzyme Assay (HTRF KinEASE-TK), M918T. On the technique in general: TR-FRET usually uses a lanthanide donor and a delayed reading to cut background.
For test [3], the target named is RET kinase Wild Type (Homo sapiens, UniProt P07949). Briefly: RET Enzyme Assay (HTRF KinEASE-TK), Wild Type.
Test [4] deals with RET kinase G810R (Homo sapiens, UniProt P07949, G810R). Briefly: RET Enzyme Assay (HTRF KinEASE-TK), G810R.

SMILES strings stand for the structures. Counter-ions that a name gives are not always drawn.

Sequence of RET kinase G810R (P07949 29-1114 G810R): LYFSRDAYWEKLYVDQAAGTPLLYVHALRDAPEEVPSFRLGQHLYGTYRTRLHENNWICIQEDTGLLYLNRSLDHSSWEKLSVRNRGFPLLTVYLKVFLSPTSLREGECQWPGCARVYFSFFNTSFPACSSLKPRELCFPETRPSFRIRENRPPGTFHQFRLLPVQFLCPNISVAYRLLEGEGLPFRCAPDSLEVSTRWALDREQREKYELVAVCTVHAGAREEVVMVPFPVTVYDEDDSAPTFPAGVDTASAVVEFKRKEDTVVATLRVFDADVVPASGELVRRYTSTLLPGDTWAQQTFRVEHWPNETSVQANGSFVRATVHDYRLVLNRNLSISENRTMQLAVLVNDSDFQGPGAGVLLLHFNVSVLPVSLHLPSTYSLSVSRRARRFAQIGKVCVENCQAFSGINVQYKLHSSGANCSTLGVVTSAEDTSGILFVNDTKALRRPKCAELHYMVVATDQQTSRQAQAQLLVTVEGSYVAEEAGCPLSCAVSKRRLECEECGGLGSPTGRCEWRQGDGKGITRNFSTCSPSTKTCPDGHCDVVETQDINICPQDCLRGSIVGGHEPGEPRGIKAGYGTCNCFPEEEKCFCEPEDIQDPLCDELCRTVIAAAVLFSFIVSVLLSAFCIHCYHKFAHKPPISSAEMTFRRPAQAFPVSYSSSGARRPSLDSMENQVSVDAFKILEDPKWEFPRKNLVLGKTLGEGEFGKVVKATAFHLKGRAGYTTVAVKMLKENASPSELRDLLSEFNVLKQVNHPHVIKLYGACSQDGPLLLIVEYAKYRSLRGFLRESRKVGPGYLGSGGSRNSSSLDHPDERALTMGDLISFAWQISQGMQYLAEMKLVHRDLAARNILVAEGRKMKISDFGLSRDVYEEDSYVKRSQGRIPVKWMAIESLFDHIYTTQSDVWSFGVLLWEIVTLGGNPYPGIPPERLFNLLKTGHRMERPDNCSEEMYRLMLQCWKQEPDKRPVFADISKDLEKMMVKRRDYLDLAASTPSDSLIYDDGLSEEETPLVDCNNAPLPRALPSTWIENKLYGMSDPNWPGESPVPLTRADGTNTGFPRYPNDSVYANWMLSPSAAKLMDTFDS
Sequence of RET kinase Wild Type (P07949 29-1114): as the sequence (P07949 29-1114 G810R) above, with R782G counted along it
Sequence of RET kinase G810S (P07949 29-1114 G810S): as the sequence (P07949 29-1114 G810R) above, with R782S counted along it
Sequence of RET kinase M918T (P07949 29-1114 M918T): as the sequence (P07949 29-1114 G810R) above, with R782G, M890T counted along it

Take `CC(C)c1cc(-c2nn(C(C)C)c3ncnc(N)c23)n(C2CCCCO2)n1` (stereo not drawn) [Example 20, 1-isopropyl-3-(3-isopropyl-1-(tetrahydro-2H-pyran-2-yl)-1H-pyrazol-5-yl)-1H-pyrazolo[3,4-d]pyrimidin-4-amine]: the IC50 in test [1] amounted to 226 nM; in test [2], 46.5 nM; in test [3] it was 21.1 nM; in test [4], 70.5 nM.

Regarding `CC(C)n1nc(-c2cc(C(F)(F)F)[nH]n2)c2c(N)ncnc21` [Example 31, 1-isopropyl-3-(5-(trifluoromethyl)-1H-pyrazol-3-yl)-1H-pyrazolo[3,4-d]pyrimidin-4-amine dihydrochloride], it took 156 nM to reach half-maximal inhibition in test [3] (IC50).

The compound `CC(C)n1nc(-n2cc(C3CC3)cn2)c2c(N)ncnc21` [Example 34, 3-(4-cyclopropyl-1H-pyrazol-1-yl)-1-isopropyl-1H-pyrazolo[3,4-d]pyrimidin-4-amine] had an IC50 in test [3] of 37.3 nM.

`CC(C)n1nc(-c2c[nH]nn2)c2c(N)ncnc21` [Example 35, 1-isopropyl-3-(1H-1,2,3-triazol-4-yl)-1H-pyrazolo[3,4-d]pyrimidin-4-amine]: in test [3], 7.2 nM corresponded to half-maximal inhibition (IC50).

The compound `C=Cc1cc(-c2nn(C(C)C)c3ncnc(N)c23)[nH]n1` [Example 30, 1-isopropyl-3-(3-vinyl-1H-pyrazol-5-yl)-1H-pyrazolo[3,4-d]pyrimidin-4-amine hydrochloride] showed an IC50 in test [3] of 65.9 nM.

In the case of `CC(C)n1nc(C2CC2)cc1-c1nn(C(C)C)c2ncnc(N)c12` [Example 27, 3-(3-cyclopropyl-1-isopropyl-1H-pyrazol-5-yl)-1-isopropyl-1H-pyrazolo[3,4-d]pyrimidin-4-amine], the IC50 in test [1] was determined as 406 nM; in test [2] it was 22.3 nM; in test [3] it was 11.6 nM; in test [4], 42.9 nM.

For `CC(C)n1nc(-c2cc(C3CC3)nn2C2CCCCC2)c2c(N)ncnc21` [Example 26, 3-(1-cyclohexyl-3-cyclopropyl-1H-pyrazol-5-yl)-1-isopropyl-1H-pyrazolo[3,4-d]pyrimidin-4-amine], the IC50 in test [1] was 87.4 nM; in test [2], 14.2 nM; in test [3], 8 nM; in test [4], 31.3 nM.

For the compound `CC(C)n1nc(-c2cnn(C3CC3)c2)c2c(N)ncnc21` [Example 29, 3-(1-cyclopropyl-1H-pyrazol-4-yl)-1-isopropyl-1H-pyrazolo[3,4-d]pyrimidin-4-amine], the IC50 in test [3] was 61.7 nM.

Consider `CC(C)n1nc(-c2cc(C(F)(F)F)nn2C2CCCCO2)c2c(N)ncnc21` (stereo not drawn) [Example 25, 1-isopropyl-3-(1-(tetrahydro-2H-pyran-2-yl)-3-(trifluoromethyl)-1H-pyrazol-5-yl)-1H-pyrazolo[3,4-d]pyrimidin-4-amine], for which the IC50 in test [1] is 79.8 nM; in test [2], 16.3 nM; in test [3], 8.4 nM; in test [4], 48.6 nM.

Compound `CC(C)n1nc(-c2nccn2C)c2c(N)ncnc21` [Example 33, 1-isopropyl-3-(1-methyl-1H-imidazol-2-yl)-1H-pyrazolo[3,4-d]pyrimidin-4-amine] displayed an IC50 in test [3] of 65.9 nM.

In turn, `CC(=O)n1nc(-c2nn(C(C)C)c3ncnc(N)c23)cc1C` [Example 32, 1-(3-(4-amino-1-isopropyl-1H-pyrazolo[3,4-d]pyrimidin-3-yl)-5-methyl-1H-pyrazol-1-yl)ethan-1-one] came in with an IC50 in test [3] of 44.7 nM.

With `CC(C)n1nc(-c2cc(-c3ccccc3)nn2C2CCCCO2)c2c(N)ncnc21` (stereo not drawn) [Example 24, 1-isopropyl-3-(3-phenyl-1-(tetrahydro-2H-pyran-2-yl)-1H-pyrazol-5-yl)-1H-pyrazolo[3,4-d]pyrimidin-4-amine], the IC50 in test [1] amounted to 54.3 nM; in test [2] it was 9.8 nM; in test [3], 8.7 nM; in test [4], 55 nM.

Source of the values: patent publication US11524963B2, “Substituted pyrazolo[3,4-d]pyrimidines as RET kinase inhibitors” (Array Biopharma Inc., priority 2018, dated 2022).
